Paper PMC5824344 (ACS Chemical Biology, 2017)

Legend:
[1] = system: GluI and GluII in HL60 (promyelocytic) cells; assay: Free oligosaccharide (FOS) assay in HL60 cells; type: cell-based, human; details: 48 h
Protocol: 5 Cell and Virus Culture and Assays
5.1 Culture of Cell Lines
The human hepatoma cell line Huh7.5 (Apath, LLC) was cultured in Dulbecco’s modiﬁed Eagle medium (DMEM) with Glutamax (Gibco) supplemented with 100 µg mL−1 strepto-mycin (Sigma), 100 U mL−1 penicillin (Sigma), 100 µm MEM non-essential amino acids (Gibco) and 10% (volume/volume, v/v) heat-inactivated (56 ◦C, 30 min) fetal calf serum (FCS, Seralab). The human monocytic cell line HL60 (ATCC), human T lymphocyte cell line Jurkat (ATCC), and human B lymphocyte cell line Raji (ATCC) were each maintained in RPMI 1640 media with Glutamax (Gibco) supplemented with 100 µg mL−1 streptomycin, 100 U mL−1 penicillin and 10% (v/v) FCS. The monkey kidney cell line LLC-MK2 (a gift from Armed Forces Research Institute of Medical Sciences, Thailand) was cultured in M199 media (Gibco) supplemented with 2 mm l-glutamine, 100 µg mL−1 streptomycin, 100 U mL−1 penicillin and 20% (v/v) FCS. Subsequently, these are referred to as growth media for each cell line. Unless otherwise indicated, all cell incubations were carried out at 37 ◦C and 5% CO2. All cells were maintained as mycoplasma free, with regular veriﬁcations by polymerase chain reaction (PCR).
5.2 Isolation and Culture of Primary Human MDMΦ
Primary human MDMΦ were generated from human monocytes isolated from buﬀy coats (NHS Blood and Transplant, surplus to clinical requirements) as described previously 5 and cultured in X-VIVO10 medium (Lonza) supplemented with 1% (v/v) heat-inactivated (56◦C, 30 min) autologous plasma. The use of human blood was approved by the NHS National Research Ethics Service (09/H0606/3).
Cell viability was measured using the CellTiter 96 R© AQueous One Solution Cell Prolifera-tion MTA (3-(4,5-dimethylthiazol-2-yl)-5-(3-carboxymethoxyphenyl)-2-(4-sulfophenyl)-2H - […]
tetrazolium, inner salt) Assay (Promega) according to the manufacturer’s instruction. Brieﬂy, cells were treated in triplicate either for 4 d (Huh7.5) or 2 d (all other cell types). […]
After a further one to two hour incubation, the absorbance at 490 nm was measured on a Molecular Devices SpectraMax M5 microplate reader. […]
Absorbances were averaged across replicates, and corrected for background by subtracting the value for media-only wells. Each drug treatment was then evaluated as a percentage of untreated cells. […]
FOS analysis was carried out as described previously. […] Before purifying the FOS, each sample was analyzed for protein content using the modiﬁed Bradford assay. […] The labelled glycans were then analyzed by normal phase high performance liquid chromatography. Retention times and peak area were used to identify and quantify glycans, respectively, by comparison to standards of known identity and molar quantity. FOS quantities were normalized to protein levels.

Rat intestinal sucrase = target: T1, Rat intestinal sucrase (Rattus norvegicus, UniProt P23739); assay: Inhibition of rat intestinal sucrase (natural substrate, glucose release); type: biochemical; details: for IC50: isolated enzyme in vitro, mean of three measurements, read-out: IC50, α-Glucosidase, Rat intestinal sucrase
T1 construct: from tissue; host or cells: intestine of male Wistar rats, partially purified extract
T1 sequence (P23739 whole entry): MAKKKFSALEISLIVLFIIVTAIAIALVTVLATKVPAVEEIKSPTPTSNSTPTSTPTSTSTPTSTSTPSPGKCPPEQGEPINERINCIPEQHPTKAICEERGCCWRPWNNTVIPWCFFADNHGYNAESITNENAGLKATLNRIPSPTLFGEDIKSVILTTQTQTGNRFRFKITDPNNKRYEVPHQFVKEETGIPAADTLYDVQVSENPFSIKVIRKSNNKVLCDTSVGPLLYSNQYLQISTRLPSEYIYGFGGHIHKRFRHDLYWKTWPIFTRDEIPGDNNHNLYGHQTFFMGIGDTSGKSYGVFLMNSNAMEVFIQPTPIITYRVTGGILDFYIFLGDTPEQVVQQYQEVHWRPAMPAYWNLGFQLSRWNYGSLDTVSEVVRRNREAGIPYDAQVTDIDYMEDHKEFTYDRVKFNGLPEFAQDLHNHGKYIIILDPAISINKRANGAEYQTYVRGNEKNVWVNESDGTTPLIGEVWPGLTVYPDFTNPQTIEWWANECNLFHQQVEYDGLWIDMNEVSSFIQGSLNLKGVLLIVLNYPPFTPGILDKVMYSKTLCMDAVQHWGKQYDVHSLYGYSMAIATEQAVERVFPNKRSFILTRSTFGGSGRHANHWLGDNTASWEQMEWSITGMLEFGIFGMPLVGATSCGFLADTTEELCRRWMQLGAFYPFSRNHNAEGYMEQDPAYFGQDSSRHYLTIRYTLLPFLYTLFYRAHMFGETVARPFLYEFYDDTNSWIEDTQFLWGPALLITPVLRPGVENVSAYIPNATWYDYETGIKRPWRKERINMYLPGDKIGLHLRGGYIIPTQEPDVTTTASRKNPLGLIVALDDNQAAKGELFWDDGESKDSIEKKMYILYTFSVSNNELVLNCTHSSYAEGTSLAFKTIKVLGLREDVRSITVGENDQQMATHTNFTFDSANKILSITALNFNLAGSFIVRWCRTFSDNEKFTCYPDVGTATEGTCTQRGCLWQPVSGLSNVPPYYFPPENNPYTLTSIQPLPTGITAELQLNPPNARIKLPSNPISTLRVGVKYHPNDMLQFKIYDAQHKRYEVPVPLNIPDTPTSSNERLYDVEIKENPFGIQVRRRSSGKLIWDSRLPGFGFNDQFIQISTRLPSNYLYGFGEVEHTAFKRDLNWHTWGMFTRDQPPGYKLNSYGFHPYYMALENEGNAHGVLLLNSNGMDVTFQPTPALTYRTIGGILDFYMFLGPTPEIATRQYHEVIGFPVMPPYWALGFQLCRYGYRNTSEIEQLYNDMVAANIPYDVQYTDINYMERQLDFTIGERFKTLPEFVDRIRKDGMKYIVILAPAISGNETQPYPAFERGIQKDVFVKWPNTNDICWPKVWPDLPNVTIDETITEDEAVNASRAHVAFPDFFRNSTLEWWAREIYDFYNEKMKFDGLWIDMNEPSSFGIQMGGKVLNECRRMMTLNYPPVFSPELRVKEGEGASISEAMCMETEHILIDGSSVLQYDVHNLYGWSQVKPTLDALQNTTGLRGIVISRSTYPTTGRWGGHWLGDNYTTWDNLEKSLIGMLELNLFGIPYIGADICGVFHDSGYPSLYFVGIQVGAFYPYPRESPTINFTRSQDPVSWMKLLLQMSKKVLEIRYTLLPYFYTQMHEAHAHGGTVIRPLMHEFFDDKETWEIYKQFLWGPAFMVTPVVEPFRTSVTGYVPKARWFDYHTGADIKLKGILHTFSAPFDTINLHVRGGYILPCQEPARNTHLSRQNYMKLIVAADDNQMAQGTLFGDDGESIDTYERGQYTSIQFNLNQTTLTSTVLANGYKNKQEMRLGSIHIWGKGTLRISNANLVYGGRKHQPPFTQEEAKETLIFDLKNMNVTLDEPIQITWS

SMILES | glucosylated free oligosaccharides (FOS) observed after treatment ([1]; 10 µm) | IC50 (Rat intestinal sucrase) [µM] | glucosylated free oligosaccharides (FOS) observed after treatment ([1]; 50 µm) | glucosylated free oligosaccharides (FOS) observed after treatment ([1]; 50 µm, listed as ToP-DNJ 4) | inhibition at 50 µM (Rat intestinal sucrase; 50 μM, read-out: inhibition of intestinal sucrase at the maximum tested concentration) [%]
CCCCN1CC(O)C(O)C(O)C1CO [Compound 2, N-butyl-D-1-deoxynojirimycin, reference compound] | produced glucosylated FOS | 0.43 | – | – | –
Cc1c(C)c2c(c(C)c1OCCCCCN1CC(O)C(O)C(O)C1CO)CCC(C)(CCCC(C)CCCC(C)CCCC(C)C)O2 (stereo not shown) [Compound 4, 5′-tocopheroxypentyl-DNJ] | did not | > 50 | detected | production of monoglucosylated FOS | < 50
